System: BPH1, PNT1A, LNCaP, 22rv1, PC3 and DU145 cell lines
Test: 5-aza-dC treatment, RNA extraction and RT-qPCR
Format: cell-based, human
Conditions: prostatic cell lines, 1 μM 5-aza-dC for two days, five day recovery; when methylation was reduced, not when DNA methylation levels were unaffected
Method: BPH1, PNT1A, LNCaP, 22rv1, PC3 and DU145 cell lines at >50% confluence were treated with 1 μM freshly prepared 5-aza-2′-deoxycytidine (5-aza-dC) in 50% acetic acid (Sigma, cat. no.: A3656) for two days. After a five day recovery period, DNA was purified as described above. RNA was purified using the RNeasy Mini kit from Qiagen and stored at −80° C. One μg RNA was reverse transcribed using 100 pmol oligo-dT(24) primer and the SuperScript II Reverse Transcriptase kit (Invitrogen). Taqman® gene expression assays: AOX1 (Hs01565232_m1), C1orf114 (Hs00982321_g1), GAS6 (Hs01090305_m1), and HAPLN3 (Hs00820260_m1) were used with Taqman Mastermix no UNG. UBC was used for normalization (primers: 5′-GATTTGGGTCGCGGTTCTT-3′ and 5′-[…]-3′ used with Power Sybr Green Mastermix). Assays were run twice in triplicate in 10 μL reactions. Reactions were mixed and run as described for qMSP assays.

Nc1ncn([C@H]2C[C@H](O)[C@@H](CO)O2)c(=O)n1 [5-aza-dC, 5-aza-2′-deoxycytidine]
RNA expression from DNA hypermethylated genes: generally stimulated RNA expression

Source: patent publication US10106854B2, “Biomarkers for prostate cancer” (Aarhus Universitet, priority 2012, dated 2018)
